This note sets out measurements from patent publication US10953012B2, “Heterocyclic compounds for the inhibition of pask” (BioEnergenix LLC, priority 2011, dated 2021).

The target of one experiment is hPASK (kinase domain) (Homo sapiens (Human), UniProt Q96RG2). Description: PAS Kinase Luminescence Assay (Kinase-Glo), kinase domain. The class given is biochemical. How it is done: (§1) PAS Kinase Luminescence Assay
(§2) One assay for purified hPASK activity utilizes the Kinase-Glo Luminescent Kinase Assay (Promega), which quantifies the amount of ATP remaining in solution following kinase reaction. The assay is carried out in a 96-well plate format and is performed by adding a volume of Kinase-Glo Reagent (Promega, catalog #V3771) equal to the volume of solution in the well of a completed kinase reaction. Kinase-Glo reagent contains Luciferase and its substrate. After addition to a kinase reaction it allows to measure luminescence. The amount of ATP left in solution at the time of Kinase-Glo Plus addition is directly proportional to the luminescence that is measured in each well, and inversely correlated with kinase activity.
(§3) Purified hPASK from insect cells (0.02 μg) is added to a 50 μL reaction mix containing 40 mM HEPES (pH 7.0), 100 mM KCl, 5 mM MgCl2, 1 mM DTT and 1 μg of MBP protein. Inhibitory compounds are then added and the mixture is incubated for 10 min at 25° C. before adding 5 μL of ATP (at desired concentration). The reaction is allowed to proceed at 25° C. for 1 hour before adding 50 μL of Kinase-Glo reagent. The luminescence is measured as soon as 10 minutes after Kinase-Glo reagent is added.
(§4) Results are shown below in Table 1, where NT means not tested.
On the technique in general: In Kinase-Glo more light means more ATP remaining.

In the next experiment the target is hPASK (full length) (Homo sapiens (Human), UniProt Q96RG2). Kind of experiment: PAS Kinase Luminescence Assay (Kinase-Glo), full length. The class given is biochemical. How it is done: as §1, §2, §3, §4
Sequence of hPASK (full length) (Q96RG2 whole entry): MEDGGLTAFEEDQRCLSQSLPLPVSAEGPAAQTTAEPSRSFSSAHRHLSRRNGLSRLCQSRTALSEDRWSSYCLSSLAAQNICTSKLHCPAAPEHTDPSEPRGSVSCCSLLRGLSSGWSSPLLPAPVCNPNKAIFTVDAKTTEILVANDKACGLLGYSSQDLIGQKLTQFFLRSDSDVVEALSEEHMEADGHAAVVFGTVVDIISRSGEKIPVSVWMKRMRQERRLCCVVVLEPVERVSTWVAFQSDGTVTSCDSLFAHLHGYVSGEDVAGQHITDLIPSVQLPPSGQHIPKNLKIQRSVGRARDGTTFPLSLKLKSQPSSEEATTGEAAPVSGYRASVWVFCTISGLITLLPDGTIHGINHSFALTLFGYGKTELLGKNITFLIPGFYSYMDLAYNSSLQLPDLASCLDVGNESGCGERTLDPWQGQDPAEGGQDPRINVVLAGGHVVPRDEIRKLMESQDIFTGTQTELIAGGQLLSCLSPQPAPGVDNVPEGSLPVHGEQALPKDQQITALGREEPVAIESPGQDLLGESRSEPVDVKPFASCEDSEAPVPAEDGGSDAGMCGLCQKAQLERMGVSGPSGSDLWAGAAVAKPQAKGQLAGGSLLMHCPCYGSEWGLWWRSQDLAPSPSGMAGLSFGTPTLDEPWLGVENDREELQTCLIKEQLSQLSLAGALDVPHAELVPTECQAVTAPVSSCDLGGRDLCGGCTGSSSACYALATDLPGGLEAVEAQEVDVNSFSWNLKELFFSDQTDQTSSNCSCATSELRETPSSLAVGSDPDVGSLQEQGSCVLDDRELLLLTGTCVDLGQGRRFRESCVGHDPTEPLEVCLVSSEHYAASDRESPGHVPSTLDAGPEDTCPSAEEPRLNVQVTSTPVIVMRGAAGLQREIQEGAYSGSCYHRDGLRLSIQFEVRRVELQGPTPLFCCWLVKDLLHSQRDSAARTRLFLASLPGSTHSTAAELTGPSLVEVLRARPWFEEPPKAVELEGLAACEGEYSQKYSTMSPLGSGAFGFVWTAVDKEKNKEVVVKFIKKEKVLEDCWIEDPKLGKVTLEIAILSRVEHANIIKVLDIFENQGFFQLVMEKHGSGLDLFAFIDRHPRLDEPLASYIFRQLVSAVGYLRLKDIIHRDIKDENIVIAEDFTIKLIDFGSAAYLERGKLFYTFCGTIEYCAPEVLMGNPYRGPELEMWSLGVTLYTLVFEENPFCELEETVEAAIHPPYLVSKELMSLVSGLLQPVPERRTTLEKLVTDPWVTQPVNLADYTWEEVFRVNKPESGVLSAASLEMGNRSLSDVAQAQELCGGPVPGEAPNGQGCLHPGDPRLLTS

Sequence of hPASK (kinase domain) (Q96RG2 999-1251): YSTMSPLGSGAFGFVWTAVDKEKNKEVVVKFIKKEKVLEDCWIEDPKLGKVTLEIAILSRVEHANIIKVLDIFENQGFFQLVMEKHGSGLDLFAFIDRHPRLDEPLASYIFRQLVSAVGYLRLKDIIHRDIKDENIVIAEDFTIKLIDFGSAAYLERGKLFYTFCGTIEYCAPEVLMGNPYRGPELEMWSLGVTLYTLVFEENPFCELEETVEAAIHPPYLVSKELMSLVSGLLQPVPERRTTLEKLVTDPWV

In the case of `COc1ccc(Cc2nn3c(=O)cc(-c4ccccc4)[nH]c3c2-c2ccccc2)cc1` [Example 12, 2-(4-Methoxy-benzyl)-3,5-diphenyl-4H-pyrazolo[1,5-a]pyrimidin-7-one], the IC50 against hPASK (kinase domain) and on hPASK (full length) was at least 10 µM throughout.

Turning to `Cc1nn2c(=O)c(C#N)c(-c3ccccc3)[nH]c2c1-c1ccccc1` [Example 13, 2-Methyl-7-oxo-3,5-diphenyl-4,7-dihydro-pyrazolo[1,5-a]pyrimidine-6-carbonitrile], the figures for the IC50 against hPASK (kinase domain) and against hPASK (full length) were at most 10 µM and at least 10 µM, respectively.

`COc1ccc(-c2cc(=O)n3nc(C)c(-c4ccccc4)c3[nH]2)cc1` [Example 14, 5-(4-Methoxy-phenyl)-2-methyl-3-phenyl-4H-pyrazolo[1,5-a]pyrimidin-7-one]: the IC50 at hPASK (kinase domain) and against hPASK (full length) was at most 10 µM in each case.

For the compound `Cc1nn2c(=O)cc(-c3ccccc3)[nH]c2c1-c1ccc(F)cc1` [Example 15, 3-(4-Fluoro-phenyl)-2-methyl-5-phenyl-4H-pyrazolo[1,5-a]pyrimidin-7-one], the IC50 against hPASK (kinase domain) and against hPASK (full length) was at least 10 µM throughout.

With `COc1ccccc1-c1cc(=O)n2nc(C)c(-c3ccccc3)c2[nH]1` [Example 16, 5-(2-Methoxy-phenyl)-2-methyl-3-phenyl-4H-pyrazolo[1,5-a]pyrimidin-7-one], the IC50 against hPASK (kinase domain) and on hPASK (full length) was at most 10 µM in each case.

For the compound `Cc1nn2c(=O)cc(-c3ccc(Cl)cc3)[nH]c2c1-c1ccccc1` [Example 17, 5-(4-Chloro-phenyl)-2-methyl-3-phenyl-4H-pyrazolo[1,5-a]pyrimidin-7-one], the IC50 on hPASK (kinase domain) and against hPASK (full length) was at most 10 µM throughout.

On to `CCCc1cc(=O)n2nc(Cc3ccccc3)c(-c3ccc(Cl)cc3)c2[nH]1` [Example 18, 2-Benzyl-3-(4-chloro-phenyl)-5-propyl-4H-pyrazolo[1,5-a]pyrimidin-7-one], for which the IC50 against hPASK (kinase domain) and against hPASK (full length) was at least 10 µM throughout.

For `COCc1cc(=O)n2nc(Cc3ccccc3)c(-c3ccc(OC)cc3)c2[nH]1` [Example 19, 2-Benzyl-5-methoxymethyl-3-(4-methoxy-phenyl)-4H-pyrazolo[1,5-a]pyrimidin-7-one], the IC50 against hPASK (kinase domain) and against hPASK (full length) was at least 10 µM each time.

On to `O=c1cc(Cc2ccccc2)[nH]c2c(-c3ccccc3)c(Cc3ccccc3)nn12` [Example 21, 2,5-Dibenzyl-3-phenyl-4H-pyrazolo[1,5-a]pyrimidin-7-one], for which the IC50 at hPASK (kinase domain) and against hPASK (full length) was at least 10 µM each time.

`CCCc1cc(=O)n2nc(C)c(-c3ccc(Cl)cc3)c2[nH]1` [Example 22, 3-(4-Chloro-phenyl)-2-methyl-5-propyl-4H-pyrazolo[1,5-a]pyrimidin-7-one]: the IC50 at hPASK (kinase domain) and on hPASK (full length) was at least 10 µM throughout.

Take `COc1ccc(-c2c(C)nn3c(=O)cc(Cc4ccccc4)[nH]c23)cc1` [Example 23, 5-Benzyl-3-(4-methoxy-phenyl)-2-methyl-4H-pyrazolo[1,5-a]pyrimidin-7-one]: the IC50 against hPASK (kinase domain) and at hPASK (full length) was at least 10 µM throughout.

On to `COCc1cc(=O)n2nc(Cc3ccccc3)c(-c3ccc(Cl)cc3)c2[nH]1` [Example 24, 2-Benzyl-3-(4-chloro-phenyl)-5-methoxymethyl-4H-pyrazolo[1,5-a]pyrimidin-7-one], for which the IC50 against hPASK (kinase domain) and on hPASK (full length) was at least 10 µM throughout.

Take `O=c1c2c([nH]c3c(-c4ccc(Cl)cc4)c(Cc4ccccc4)nn13)CCC2` [Example 26, 2-Benzyl-3-(4-chlorophenyl)-6,7-dihydro-4H-cyclopenta[d]pyrazolo[1,5-a]pyrimidin-8(5H)-one]: the IC50 against hPASK (kinase domain) and on hPASK (full length) was at least 10 µM in each case.

In the case of `Cc1nn2c(=O)c3c([nH]c2c1-c1ccc(Cl)cc1)CCC3` [Example 27, 3-(4-Chlorophenyl)-2-methyl-6,7-dihydro-4H-cyclopenta[d]pyrazolo[1,5-a]pyrimidin-8(5H)-one], the IC50 at hPASK (kinase domain) and at hPASK (full length) was at least 10 µM each time.

Consider `Cc1cc(=O)n2nc(C)c(-c3ccc(Cl)cc3)c2[nH]1` [Example 28, 3-(4-Chloro-phenyl)-2,5-dimethyl-4H-pyrazolo[1,5-a]pyrimidin-7-one], for which the IC50 at hPASK (kinase domain) and on hPASK (full length) was at least 10 µM throughout.

Turning to `COCc1cc(=O)n2nc(-c3ccc(Cl)cc3)cc2[nH]1` [Example 29, 2-(4-Chloro-phenyl)-5-methoxymethyl-4H-pyrazolo[1,5-a]pyrimidin-7-one], the IC50 on hPASK (kinase domain) and against hPASK (full length) was at least 10 µM each time.

On to `COc1ccc(-c2nn3c(=O)cc(C(C)C)[nH]c3c2-c2ccccc2)cc1` [Example 30, 5-Isopropyl-2-(4-methoxy-phenyl)-3-phenyl-4H-pyrazolo[1,5-a]pyrimidin-7-one], for which the IC50 on hPASK (kinase domain) and at hPASK (full length) was at least 10 µM throughout.

On to `COc1ccc(Cc2nn3c(=O)cc(C)[nH]c3c2-c2ccccc2)cc1` [Example 31, 2-(4-Methoxy-benzyl)-5-methyl-3-phenyl-4H-pyrazolo[1,5-a]pyrimidin-7-one], for which the IC50 against hPASK (kinase domain) and on hPASK (full length) was at least 10 µM each time.

For the compound `CCc1c(C)[nH]c2c(-c3ccccc3)c(Cc3ccc(OC)cc3)nn2c1=O` [Example 32, 6-Ethyl-2-(4-methoxy-benzyl)-5-methyl-3-phenyl-4H-pyrazolo[1,5-a]pyrimidin-7-one], the IC50 on hPASK (kinase domain) and against hPASK (full length) was at least 10 µM each time.

With `CCc1c(C)[nH]c2c(-c3ccc(Cl)cc3)c(C)nn2c1=O` [Example 33, 3-(4-Chloro-phenyl)-6-ethyl-2,5-dimethyl-4H-pyrazolo[1,5-a]pyrimidin-7-one], the IC50 at hPASK (kinase domain) and at hPASK (full length) was at least 10 µM in each case.

Consider `O=c1cc(Cc2ccccc2)[nH]c2c(-c3ccccc3)c(-c3ccccc3)nn12` [Example 34, 5-Benzyl-2,3-diphenyl-4H-pyrazolo[1,5-a]pyrimidin-7-one], for which the IC50 on hPASK (kinase domain) and on hPASK (full length) was at least 10 µM throughout.

For the compound `O=c1c2c([nH]c3c(-c4ccccc4)c(-c4ccccc4)nn13)CCC2` [Example 35, 2,3-Diphenyl-6,7-dihydro-4H-cyclopenta[d]pyrazolo[1,5-a]pyrimidin-8(5H)-one], the IC50 – broadly, the concentration that inhibits the measured activity by half – against hPASK (kinase domain) was at most 10 µM; against hPASK (full length) it was at least 10 µM.

As for `CCOC(=O)Cc1cc(=O)n2nc(-c3ccccc3)c(-c3ccccc3)c2[nH]1` [Example 36, (7-oxo-2,3-diphenyl-4,7-dihydro-pyrazolo[1,5-a]pyrimidin-5-yl)-acetic acid ethyl ester], the IC50 on hPASK (kinase domain) and against hPASK (full length) was at least 10 µM in each case.

On to `Cc1ccc(-c2cc(=O)n3nc(C)c(-c4ccccc4)c3[nH]2)cc1` [Example 37, 2-Methyl-3-phenyl-5-p-tolyl-4H-pyrazolo[1,5-a]pyrimidin-7-one], for which the IC50 against hPASK (kinase domain) and at hPASK (full length) was at least 10 µM throughout.

Regarding `COc1ccc(-c2cc(=O)n3nc(C)c(-c4ccc(F)cc4)c3[nH]2)cc1` [Example 38, 3-(4-Fluoro-phenyl)-5-(4-methoxy-phenyl)-2-methyl-4H-pyrazolo[1,5-a]pyrimidin-7-one], the IC50 at hPASK (kinase domain) and against hPASK (full length) was at most 10 µM throughout.

Regarding `Cc1cc(=O)n2nc(-c3cccc(Br)c3)cc2[nH]1` [Example 39, 2-(3-Bromo-phenyl)-5-methyl-4H-pyrazolo[1,5-a]pyrimidin-7-one], the results for the IC50 on hPASK (kinase domain) and against hPASK (full length) were at least 10 µM and at most 10 µM, respectively.
